For the experiment, the system named is PGY-sRNA-26. The experiment in a line: In vivo delivery study of lipid-nucleic acid mixture (oral gavage, RT-qPCR of PGY-sRNA-26 in tissues). The arrangement: species or system mouse. Particulars: C57BL/6 mice, gavage, 100 μg lipid: 10 nmol PGY-sRNA-26, 12 hours; for oral delivery of single-stranded sRNA nucleic acids into mouse intestinal tissue: intestine; for delivery efficacy over each tissue and blood tested (broad-spectrum delivery): all tissues and blood tested. A digest of the protocol:
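C57BL/6 male mice (~6 weeks, 20-24 g), fasted 12 h, were gavaged with 10 nmol 3′-methylated PGY-sRNA-26 mixed with 100 μg lipid (heated 90° C. 15 min), versus saline or free sRNA (n=4 each). After 12 h, blood and tissues were Trizol-extracted; sRNA quantified by stem-loop RT-qPCR relative to U6.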
Background: Real-time PCR tracks product formation cycle by cycle.

Molecules are shown by their SMILES.

As to `C[C@]12CCC(=O)C=C1CC[C@@H]1[C@@H]2[C@@H](O)C[C@@]2(C)[C@H]1CC[C@]2(O)C(=O)CO` [Lipid 566], the “oral delivery of single-stranded sRNA nucleic acids into mouse blood” value is reported as “can effectively orally deliver”, the “oral delivery of single-stranded sRNA nucleic acids into mouse femur” value is reported as “can effectively orally deliver”, the “oral delivery of single-stranded sRNA nucleic acids into mouse heart tissue” value is “can effectively orally deliver” and the “oral delivery of single-stranded sRNA nucleic acids into mouse intestinal tissue” value is reported as “can effectively orally deliver”. In addition, the “oral delivery of single-stranded sRNA nucleic acids into mouse kidney tissue” value was “can effectively orally deliver”, the “oral delivery of single-stranded sRNA nucleic acids into mouse liver tissue” value is recorded as “can effectively orally deliver” and the “oral delivery of single-stranded sRNA nucleic acids into mouse stomach tissue” value is “can effectively orally deliver”.

Take `C[C@@H]1CC[C@@]2(OC1)O[C@H]1C[C@H]3[C@@H]4CC[C@H]5C[C@@H](O)CC[C@]5(C)[C@H]4CC(=O)[C@]3(C)[C@H]1[C@@H]2C` [Lipid 558]: the “delivery efficacy over each tissue and blood tested (broad-spectrum delivery)” value is given as “exhibited the best delivery efficacy”; the “oral delivery of single-stranded sRNA nucleic acids into mouse blood” value is listed as “can effectively orally deliver”; the “oral delivery of single-stranded sRNA nucleic acids into mouse brain tissue” value is “can effectively orally deliver”; the “oral delivery of single-stranded sRNA nucleic acids into mouse femur” value is “can effectively orally deliver”. Moreover, the “oral delivery of single-stranded sRNA nucleic acids into mouse heart tissue” value is given as “can effectively orally deliver”, the “oral delivery of single-stranded sRNA nucleic acids into mouse intestinal tissue” value is given as “can effectively orally deliver”, the “oral delivery of single-stranded sRNA nucleic acids into mouse kidney tissue” value is reported as “can effectively orally deliver” and the “oral delivery of single-stranded sRNA nucleic acids into mouse liver tissue” value is recorded as “can effectively orally deliver”. The “oral delivery of single-stranded sRNA nucleic acids into mouse lung tissue” value was “can effectively orally deliver”, the “oral delivery of single-stranded sRNA nucleic acids into mouse spleen tissue” value is on record as “can effectively orally deliver” and the “oral delivery of single-stranded sRNA nucleic acids into mouse stomach tissue” value is on record as “can effectively orally deliver”.

For the compound `C=C1/C(=C\C=C2/CCC[C@]3(C)[C@@H]([C@H](C)/C=C/[C@@H](O)C4CC4)CC[C@@H]23)C[C@@H](O)C[C@@H]1O` [Lipid 554], the “delivery efficacy over each tissue and blood tested (broad-spectrum delivery)” value is recorded as “exhibited the best delivery efficacy”; the “oral delivery of single-stranded sRNA nucleic acids into mouse blood” value is recorded as “can effectively orally deliver”; the “oral delivery of single-stranded sRNA nucleic acids into mouse brain tissue” value is “can effectively orally deliver”; the “oral delivery of single-stranded sRNA nucleic acids into mouse femur” value is listed as “can effectively orally deliver”. Moreover, the “oral delivery of single-stranded sRNA nucleic acids into mouse heart tissue” value is “can effectively orally deliver”, the “oral delivery of single-stranded sRNA nucleic acids into mouse intestinal tissue” value was “can effectively orally deliver”, the “oral delivery of single-stranded sRNA nucleic acids into mouse kidney tissue” value is given as “can effectively orally deliver” and the “oral delivery of single-stranded sRNA nucleic acids into mouse liver tissue” value was “can effectively orally deliver”. Also, the “oral delivery of single-stranded sRNA nucleic acids into mouse lung tissue” value is “can effectively orally deliver”, the “oral delivery of single-stranded sRNA nucleic acids into mouse spleen tissue” value is reported as “can effectively orally deliver” and the “oral delivery of single-stranded sRNA nucleic acids into mouse stomach tissue” value is recorded as “can effectively orally deliver”.

As to `C[C@]12CC[C@@H]3c4ccc(O)cc4CC[C@H]3[C@@H]1C[C@@H](O)[C@@H]2O` [Lipid 633], the “delivery efficacy over each tissue and blood tested (broad-spectrum delivery)” value was “exhibited the best delivery efficacy”; the “oral delivery of single-stranded sRNA nucleic acids into mouse blood” value is “can effectively orally deliver”; the “oral delivery of single-stranded sRNA nucleic acids into mouse brain tissue” value was “can effectively orally deliver”; the “oral delivery of single-stranded sRNA nucleic acids into mouse femur” value is listed as “can effectively orally deliver”. The “oral delivery of single-stranded sRNA nucleic acids into mouse heart tissue” value is “can effectively orally deliver”, the “oral delivery of single-stranded sRNA nucleic acids into mouse intestinal tissue” value is given as “can effectively orally deliver”, the “oral delivery of single-stranded sRNA nucleic acids into mouse kidney tissue” value is “can effectively orally deliver” and the “oral delivery of single-stranded sRNA nucleic acids into mouse liver tissue” value is given as “can effectively orally deliver”. For the same compound, the “oral delivery of single-stranded sRNA nucleic acids into mouse lung tissue” value is “can effectively orally deliver”, the “oral delivery of single-stranded sRNA nucleic acids into mouse spleen tissue” value is reported as “can effectively orally deliver” and the “oral delivery of single-stranded sRNA nucleic acids into mouse stomach tissue” value is listed as “can effectively orally deliver”.

As to `CC(=O)OCC(=O)[C@@]1(O)CC[C@H]2[C@@H]3CCC4=CC(=O)CC[C@]4(C)[C@H]3C(=O)C[C@@]21C` [Lipid 585], the “oral delivery of single-stranded sRNA nucleic acids into mouse blood” value was “can effectively orally deliver”, the “oral delivery of single-stranded sRNA nucleic acids into mouse brain tissue” value is recorded as “can effectively orally deliver”, the “oral delivery of single-stranded sRNA nucleic acids into mouse femur” value is reported as “can effectively orally deliver” and the “oral delivery of single-stranded sRNA nucleic acids into mouse heart tissue” value was “can effectively orally deliver”. Moreover, the “oral delivery of single-stranded sRNA nucleic acids into mouse intestinal tissue” value was “can effectively orally deliver”, the “oral delivery of single-stranded sRNA nucleic acids into mouse kidney tissue” value is “can effectively orally deliver”, the “oral delivery of single-stranded sRNA nucleic acids into mouse liver tissue” value is reported as “can effectively orally deliver” and the “oral delivery of single-stranded sRNA nucleic acids into mouse lung tissue” value is “can effectively orally deliver”. The “oral delivery of single-stranded sRNA nucleic acids into mouse spleen tissue” value was “can effectively orally deliver” and the “oral delivery of single-stranded sRNA nucleic acids into mouse stomach tissue” value is reported as “can effectively orally deliver”.

With `C[C@]12CC[C@H]3[C@@H](CCC4=CC(=O)CC[C@@H]43)[C@@H]1CC[C@@H]2O` [Lipid 562], the “oral delivery of single-stranded sRNA nucleic acids into mouse blood” value is listed as “can effectively orally deliver”, the “oral delivery of single-stranded sRNA nucleic acids into mouse brain tissue” value is “can effectively orally deliver”, the “oral delivery of single-stranded sRNA nucleic acids into mouse femur” value is given as “can effectively orally deliver” and the “oral delivery of single-stranded sRNA nucleic acids into mouse heart tissue” value is “can effectively orally deliver”. Further, the “oral delivery of single-stranded sRNA nucleic acids into mouse intestinal tissue” value is on record as “can effectively orally deliver”, the “oral delivery of single-stranded sRNA nucleic acids into mouse liver tissue” value was “can effectively orally deliver”, the “oral delivery of single-stranded sRNA nucleic acids into mouse lung tissue” value is “can effectively orally deliver” and the “oral delivery of single-stranded sRNA nucleic acids into mouse spleen tissue” value is reported as “can effectively orally deliver”. Besides, the “oral delivery of single-stranded sRNA nucleic acids into mouse stomach tissue” value is listed as “can effectively orally deliver”.

Turning to `C=C1/C(=C\C=C2/CCC[C@]3(C)[C@@H]([C@H](C)/C=C/[C@H](C)C(C)C)CC[C@@H]23)C[C@@H](O)C[C@@H]1O` [Lipid 569], the “delivery efficacy over each tissue and blood tested (broad-spectrum delivery)” value is reported as “exhibited the best delivery efficacy”; the “oral delivery of single-stranded sRNA nucleic acids into mouse blood” value was “can effectively orally deliver”; the “oral delivery of single-stranded sRNA nucleic acids into mouse brain tissue” value is reported as “can effectively orally deliver”; the “oral delivery of single-stranded sRNA nucleic acids into mouse femur” value is on record as “can effectively orally deliver”. Besides, the “oral delivery of single-stranded sRNA nucleic acids into mouse heart tissue” value is “can effectively orally deliver”, the “oral delivery of single-stranded sRNA nucleic acids into mouse intestinal tissue” value is “can effectively orally deliver”, the “oral delivery of single-stranded sRNA nucleic acids into mouse kidney tissue” value is “can effectively orally deliver” and the “oral delivery of single-stranded sRNA nucleic acids into mouse liver tissue” value is listed as “can effectively orally deliver”. The “oral delivery of single-stranded sRNA nucleic acids into mouse lung tissue” value is on record as “can effectively orally deliver”, the “oral delivery of single-stranded sRNA nucleic acids into mouse spleen tissue” value is listed as “can effectively orally deliver” and the “oral delivery of single-stranded sRNA nucleic acids into mouse stomach tissue” value is listed as “can effectively orally deliver”.

For `CC(C)CCC[C@@H](C)[C@H]1CC[C@H]2[C@@H]3CC[C@H]4C[C@@H](O)CC[C@]4(C)[C@H]3CC[C@]12C` [Lipid 583, 5α-cholestan-3β-ol (3S,5S,8R,9S,10S,13R,14S,17R)-10,13-dimethyl-17-[(2R)-6-methylheptan-2-yl]-2,3,4,5,6,7,8,9,11,12,14,15,16,17-tetradecahydro-1H-cyclopenta[a]phenanthren-3-ol], the “oral delivery of single-stranded sRNA nucleic acids into mouse blood” value is on record as “can effectively orally deliver”, the “oral delivery of single-stranded sRNA nucleic acids into mouse brain tissue” value is “can effectively orally deliver”, the “oral delivery of single-stranded sRNA nucleic acids into mouse femur” value is reported as “can effectively orally deliver” and the “oral delivery of single-stranded sRNA nucleic acids into mouse heart tissue” value is recorded as “can effectively orally deliver”. The “oral delivery of single-stranded sRNA nucleic acids into mouse intestinal tissue” value is “can effectively orally deliver”, the “oral delivery of single-stranded sRNA nucleic acids into mouse liver tissue” value was “can effectively orally deliver”, the “oral delivery of single-stranded sRNA nucleic acids into mouse lung tissue” value was “can effectively orally deliver” and the “oral delivery of single-stranded sRNA nucleic acids into mouse stomach tissue” value is recorded as “can effectively orally deliver”.

Regarding `C[C@]12CC[C@H](O)CC1=CC[C@@H]1[C@@H]2CC[C@]2(C)C(=O)CC[C@@H]12` [Lipid 561], the “oral delivery of single-stranded sRNA nucleic acids into mouse blood” value is reported as “can effectively orally deliver” and the “oral delivery of single-stranded sRNA nucleic acids into mouse femur” value was “can effectively orally deliver”.

For the origin of these results see US20240293551A1, “USE OF ST-TYPE LIPID COMPOUNDS IN PREPARATION OF NUCLEIC ACID DELIVERY REAGENT AND RELATED PRODUCT” (INSTITUTE OF BASIC MEDICAL SCIENCES CHINESE ACADEMY OF …, priority 2021, published 2024).
